Test results: patent US20250144067A1, “PERSONALIZED STARVATION THERAPY FOR CANCER” (Faeth Therapeutics, Inc., priority 2021, published 2025)
Counter-ions that a name gives are not always drawn.

How the values were obtained:
[1] = tested on: NCI-H292 lung cancer cells; assay: FDA drug screening, complete media vs cholesterol-free media without statin (TABLE 1); type: cell-based, human
[2] = tested on: NCI-H292 lung cancer cells; assay: FDA drug screening, complete media vs cholesterol-free media with simvastatin (TABLE 2); type: cell-based, human; settings: for Cholesterol-free media + simvastatin (0.04 μM) / Complete Media: NCI-H292 cells
[3] = NCI-H292 cells, cholesterol-free media without statin
[4] = complete vs cholesterol-free media, greater than 0 enhanced anti-cancer activity, about 0 neutral, below 0 antagonists
[5] = drug in cholesterol-free media with simvastatin 0.04 μM
[6] = complete media vs cholesterol-free media + simvastatin (0.04 μM), >0 enhanced anti-cancer activity, about 0 neutral, <0 antagonist
[7] = Complete minus Cholesterol-free, >0 enhanced anti-cancer activity, about 0 neutral, <0 antagonist
[8] = cholesterol-free media with simvastatin 0.04 μM, FDA drug library screen (TABLE 2)
[9] = complete media, FDA drug library screen (TABLE 2)
[10] = complete media minus cholesterol-free media + simvastatin (0.04 μM), >0 enhanced anti-cancer activity, about 0 neutral, <0 antagonist
[11] = NCI-H292 cells, cholesterol-free media without statin, FDA drug library screen
[12] = NCI-H292 cells, complete media, FDA drug library screen
[13] = complete vs cholesterol-free media, >0 enhanced anti-cancer activity, about 0 neutral, <0 antagonist
[14] = FDA library drug in cholesterol-free media with simvastatin 0.04 μM
[15] = Complete minus Cholesterol-free, greater than 0 enhanced anti-cancer activity, about 0 neutral, below 0 antagonist
[16] = NCI-H292 cells, FDA drug library screen, cholesterol-free media without statin
[17] = NCI-H292 cells, FDA drug library screen, complete media
[18] = FDA library drug in complete media
[19] = Complete minus Cholesterol-free, […]
[20] = complete media minus cholesterol-free media + simvastatin (0.04 μM), […]
[21] = cholesterol-free media with simvastatin 0.04 μM, cell growth value in FDA drug screen
[22] = complete media, cell growth value in FDA drug screen
[23] = complete media minus cholesterol-free media + simvastatin, >0 enhanced anti-cancer activity, about 0 neutral, <0 antagonist
[24] = complete vs cholesterol-free media, […]
[25] = FDA drug library screen, cholesterol-free media with simvastatin 0.04 μM
[26] = FDA drug library screen, complete media
[27] = complete media minus cholesterol-free media + simvastatin, […]

SMILES: N[C@@H](Cc1cc(I)c(Oc2ccc(O)c(I)c2)c(I)c1)C(=O)O [Liothyronine (sodium)]
- Cholesterol-free [1, 3]: 1.224
- Complete ([1]; NCI-H292 cells, complete media): 0.9078
- Difference [1, 4]: −0.32
- Cholesterol-free media + simvastatin (0.04 μM) [2, 5]: 1.302
- Complete Media ([2]; drug in complete media): 1.113
- Difference [2, 6]: −0.19

SMILES: O=C(NCCN1CCOCC1)c1ccc(Cl)cc1 [Moclobemide]
- Difference [1, 7]: −0.27
- Cholesterol-free [1, 3]: 1.09
- Complete ([1]; NCI-H292 cells, complete media): 0.8213
- Cholesterol-free media + simvastatin (0.04 μM) [2, 8]: 0.9196
- Complete Media [2, 9]: 0.8957
- Difference [2, 10]: −0.02

SMILES: NC(=O)N/N=C/c1ccc([N+](=O)[O-])o1 [Nitrofurazone]
- Cholesterol-free [1, 11]: 1.281
- Complete [1, 12]: 1.416
- Difference [1, 13]: 0.13
- Cholesterol-free media + simvastatin (0.04 μM) [2, 14]: 1.854
- Difference [2, 6]: −0.70

SMILES: Nc1nc(=O)c2c([nH]1)NC[C@@H](CNc1ccc(C(=O)N[C@@H](CCC(=O)O)C(=O)O)cc1)N2C=O [Folinic acid]
- Difference [1, 15]: −0.12
- Cholesterol-free [1, 16]: 1.105
- Complete [1, 17]: 0.9813
- Cholesterol-free media + simvastatin (0.04 μM) [2, 14]: 1.232
- Complete Media [2, 18]: 0.9515
- Difference [2, 6]: −0.28

SMILES: C[C@H]1O[C@@H](O[C@H]2[C@@H](O)C[C@H](O[C@H]3[C@@H](O)C[C@H](O[C@H]4CC[C@@]5(C)[C@H](CC[C@@H]6[C@@H]5CC[C@]5(C)[C@@H](C7=CC(=O)OC7)CC[C@]65O)C4)O[C@@H]3C)O[C@@H]2C)C[C@H](O)[C@@H]1O [Digitoxin]
- Difference [1, 19]: 0.04
- Cholesterol-free [1, 11]: −0.01931
- Complete [1, 12]: 0.0198
- Cholesterol-free media + simvastatin (0.04 μM) [2, 8]: 0.01053
- Complete Media [2, 9]: −0.02212
- Difference [2, 20]: −0.03

SMILES: Cn1c(=O)c2c(ncn2CC2OCCO2)n(C)c1=O [Doxofylline]
- Cholesterol-free [1, 3]: 1.338
- Complete ([1]; NCI-H292 cells, complete media): 0.9897
- Difference [1, 4]: −0.35
- Cholesterol-free media + simvastatin (0.04 μM) [2, 14]: 1.302
- Complete Media [2, 18]: 1.024
- Difference [2, 6]: −0.28

SMILES: NS(=O)(=O)c1cc2c(cc1Cl)NC(C(Cl)Cl)NS2(=O)=O (stereo not shown) [Trichlormethiazide]
- Cholesterol-free [1, 3]: 1.351
- Complete ([1]; NCI-H292 cells, complete media): 0.9482
- Difference [1, 4]: −0.40
- Cholesterol-free media + simvastatin (0.04 μM) [2, 21]: 1.02
- Complete Media [2, 22]: 1.045
- Difference [2, 23]: 0.02

SMILES: COc1ccc2[n-]c([S+]([O-])Cc3ncc(C)c(OC)c3C)nc2c1.COc1ccc2[n-]c([S+]([O-])Cc3ncc(C)c(OC)c3C)nc2c1.[Mg+2] (stereo not shown) [Esomeprazole magnesium]
- Cholesterol-free [1, 11]: 0.6797
- Difference [1, 24]: 0.50
- Cholesterol-free media + simvastatin (0.04 μM) [2, 25]: 0.8343
- Complete Media [2, 26]: 1.003
- Difference [2, 27]: 0.17

SMILES: OCCOCCN1CCN(C(c2ccccc2)c2ccc(Cl)cc2)CC1 (stereo not shown) [Hydroxyzine (dihydrochloride)]
- Cholesterol-free [1, 3]: 1.474
- Complete ([1]; NCI-H292 cells, complete media): 1.128
- Difference [1, 4]: −0.35
- Cholesterol-free media + simvastatin (0.04 μM) [2, 25]: 0.6407
- Difference [2, 23]: 0.53

SMILES: CCN(CC)CCOC(=O)C1(C2CCCCC2)CCCCC1 [Dicyclomine (hydrochloride)]
- Cholesterol-free [1, 3]: 1.211
- Complete ([1]; NCI-H292 cells, complete media): 0.8491
- Difference [1, 4]: −0.36
- Cholesterol-free media + simvastatin (0.04 μM) [2, 25]: 0.9961
- Complete Media [2, 26]: 0.9187
- Difference [2, 6]: −0.08

SMILES: Nc1cccc2c1CN(C1CCC(=O)NC1=O)C2=O (stereo not shown) [Lenalidomide]
- Difference [1, 15]: −0.16
- Cholesterol-free [1, 16]: 1.032
- Complete [1, 17]: 0.8739
- Cholesterol-free media + simvastatin (0.04 μM) [2, 8]: 1.008
- Complete Media [2, 9]: 0.9958
- Difference [2, 10]: −0.01

SMILES: CCCc1cc(C(N)=S)ccn1 [Prothionamide]
- Difference ([1]; Complete minus Cholesterol-free, greater than 0 enhanced anti-cancer activity, about 0 neutral, below 0 antagonists): −0.62
- Cholesterol-free ([1]; NCI-H292 cells in cholesterol-free media without statin): 1.391
- Complete ([1]; NCI-H292 cells in complete media): 0.7758
- Cholesterol-free media + simvastatin (0.04 μM) [2, 21]: 1.039
- Complete Media [2, 22]: 1.099
- Difference [2, 23]: 0.06

SMILES: CC/C=C\C/C=C\C/C=C\C/C=C\C/C=C\CCCC(=O)O [Eicosapentaenoic Acid]
- Difference [1, 15]: −0.10
- Cholesterol-free [1, 16]: 1.072
- Complete [1, 17]: 0.969
- Cholesterol-free media + simvastatin (0.04 μM) [2, 25]: 1.13
- Complete Media [2, 26]: 1.471
- Difference [2, 23]: 0.34

SMILES: NC(=O)OCC(COC(N)=O)c1ccccc1 [Felbamate]
- Cholesterol-free [1, 11]: 0.9609
- Complete [1, 12]: 1.103
- Difference [1, 13]: 0.14
- Cholesterol-free media + simvastatin (0.04 μM) [2, 5]: 1.169
- Complete Media ([2]; drug in complete media): 0.9237
- Difference [2, 6]: −0.25

SMILES: Cn1cnc2c(F)c(Nc3ccc(Br)cc3Cl)c(C(=O)NOCCO)cc21 [Selumetinib]
- Difference [1, 15]: −0.18
- Cholesterol-free [1, 16]: 0.4744
- Complete [1, 17]: 0.2899
- Cholesterol-free media + simvastatin (0.04 μM) [2, 14]: 0.7343
- Complete Media [2, 18]: 0.4618
- Difference [2, 6]: −0.27

SMILES: CC(C)[N+]1(C)[C@@H]2CC[C@H]1CC(OC(=O)C(CO)c1ccccc1)C2.[Br-] (stereo partly shown) [Ipratropium (bromide)]
- Cholesterol-free [1, 3]: 1.233
- Complete ([1]; NCI-H292 cells, complete media): 0.8969
- Difference [1, 24]: −0.34
- Cholesterol-free media + simvastatin (0.04 μM) [2, 14]: 1.536
- Difference ([2]; complete media vs cholesterol-free media + simvastatin (0.04 μM), […]): −0.39

SMILES: Clc1ccc2nsnc2c1NC1=NCCN1 [Tizanidine (hydrochloride)]
- Difference [1, 7]: 0.02
- Cholesterol-free [1, 11]: 1.07
- Complete [1, 12]: 1.09
- Cholesterol-free media + simvastatin (0.04 μM) [2, 5]: 1.174
- Complete Media ([2]; drug in complete media): 0.9856
- Difference [2, 6]: −0.19

SMILES: CCC[C@@]1(CCc2ccccc2)CC(O)=C([C@H](CC)c2cccc(NS(=O)(=O)c3ccc(C(F)(F)F)cn3)c2)C(=O)O1 [Tipranavir]
- Difference [1, 19]: −0.27
- Cholesterol-free [1, 3]: 0.9401
- Complete ([1]; NCI-H292 cells, complete media): 0.6703
- Cholesterol-free media + simvastatin (0.04 μM) [2, 8]: 1.22
- Complete Media [2, 9]: 1.177
- Difference [2, 20]: −0.04

SMILES: CCCCCOc1ccccc1/C(=C\SC)n1ccnc1 [Neticonazole (hydrochloride)]
- Cholesterol-free [1, 3]: 1.192
- Complete ([1]; NCI-H292 cells, complete media): 0.8359
- Difference [1, 4]: −0.36
- Complete Media [2, 26]: 0.9839
- Difference [2, 23]: 0.45

SMILES: NC(=O)OC[C@H](N)Cc1ccccc1 [Solriamfetol (hydrochloride)]
- Difference [1, 19]: −0.02
- Cholesterol-free [1, 11]: 1.017
- Complete [1, 12]: 1
- Cholesterol-free media + simvastatin (0.04 μM) [2, 25]: 0.997
- Complete Media [2, 26]: 1.138
- Difference [2, 27]: 0.14

SMILES: CNCCCN1c2ccccc2CCc2ccccc21 [Desipramine hydrochloride]
- Difference [1, 7]: −0.04
- Cholesterol-free [1, 11]: 1.05
- Complete [1, 12]: 1.006
- Cholesterol-free media + simvastatin (0.04 μM) [2, 14]: 2.126
- Complete Media [2, 18]: 1.494
- Difference [2, 6]: −0.63

SMILES: COc1cc2nccc(Oc3ccc(NC(=O)C4(C(=O)Nc5ccc(F)cc5)CC4)cc3)c2cc1OC [Cabozantinib]
- Difference [1, 15]: −0.08
- Cholesterol-free [1, 16]: 1.023
- Complete [1, 17]: 0.943
- Cholesterol-free media + simvastatin (0.04 μM) [2, 8]: 1.169
- Complete Media [2, 9]: 1.161
- Difference [2, 10]: −0.01

SMILES: CNCc1ccc(-c2[nH]c3cc(F)cc4c3c2CCNC4=O)cc1 [Rucaparib (Camsylate)]
- Difference [1, 7]: −0.26
- Cholesterol-free [1, 3]: 1.063
- Complete ([1]; NCI-H292 cells, complete media): 0.7996
- Cholesterol-free media + simvastatin (0.04 μM) [2, 14]: 1.277
- Complete Media [2, 18]: 0.994
- Difference [2, 6]: −0.28
